In BindingDB's records for patent US11116760 (Gilead Sciences, 2021) one finds EC50 data, which are given here for 36 compounds.

Broadly, the EC50 is the concentration needed to bring the measured effect to its halfway point.

In the experiment the target is T1, Integrin alpha-4/beta-7 (Homo sapiens, UniProt P13612+P26010).
T1 sequence (P13612 whole entry): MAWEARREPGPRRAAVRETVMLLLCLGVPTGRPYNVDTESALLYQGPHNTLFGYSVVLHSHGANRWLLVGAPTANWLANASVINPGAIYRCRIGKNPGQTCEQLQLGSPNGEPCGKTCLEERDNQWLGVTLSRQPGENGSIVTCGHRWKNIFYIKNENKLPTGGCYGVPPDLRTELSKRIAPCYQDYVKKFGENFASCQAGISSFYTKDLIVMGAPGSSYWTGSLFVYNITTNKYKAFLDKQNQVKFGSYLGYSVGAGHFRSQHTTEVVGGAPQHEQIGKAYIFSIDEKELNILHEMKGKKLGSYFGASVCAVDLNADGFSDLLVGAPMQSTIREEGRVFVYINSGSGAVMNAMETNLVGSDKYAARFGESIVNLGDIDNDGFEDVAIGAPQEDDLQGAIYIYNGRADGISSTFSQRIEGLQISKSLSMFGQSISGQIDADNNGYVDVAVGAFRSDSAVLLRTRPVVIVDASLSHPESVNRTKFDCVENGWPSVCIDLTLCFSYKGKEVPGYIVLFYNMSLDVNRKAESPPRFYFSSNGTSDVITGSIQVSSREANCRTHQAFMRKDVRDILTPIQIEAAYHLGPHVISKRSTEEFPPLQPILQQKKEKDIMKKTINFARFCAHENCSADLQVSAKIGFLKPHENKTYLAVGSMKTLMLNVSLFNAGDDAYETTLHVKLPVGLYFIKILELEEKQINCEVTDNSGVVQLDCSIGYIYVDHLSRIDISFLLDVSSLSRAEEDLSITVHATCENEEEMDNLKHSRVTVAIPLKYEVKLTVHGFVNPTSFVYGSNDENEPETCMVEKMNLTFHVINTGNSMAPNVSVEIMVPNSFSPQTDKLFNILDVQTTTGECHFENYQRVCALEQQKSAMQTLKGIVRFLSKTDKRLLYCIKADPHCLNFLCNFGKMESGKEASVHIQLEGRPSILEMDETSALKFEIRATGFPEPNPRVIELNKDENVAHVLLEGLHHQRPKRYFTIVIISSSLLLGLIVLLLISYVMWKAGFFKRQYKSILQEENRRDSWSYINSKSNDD
T1 sequence (P26010 whole entry): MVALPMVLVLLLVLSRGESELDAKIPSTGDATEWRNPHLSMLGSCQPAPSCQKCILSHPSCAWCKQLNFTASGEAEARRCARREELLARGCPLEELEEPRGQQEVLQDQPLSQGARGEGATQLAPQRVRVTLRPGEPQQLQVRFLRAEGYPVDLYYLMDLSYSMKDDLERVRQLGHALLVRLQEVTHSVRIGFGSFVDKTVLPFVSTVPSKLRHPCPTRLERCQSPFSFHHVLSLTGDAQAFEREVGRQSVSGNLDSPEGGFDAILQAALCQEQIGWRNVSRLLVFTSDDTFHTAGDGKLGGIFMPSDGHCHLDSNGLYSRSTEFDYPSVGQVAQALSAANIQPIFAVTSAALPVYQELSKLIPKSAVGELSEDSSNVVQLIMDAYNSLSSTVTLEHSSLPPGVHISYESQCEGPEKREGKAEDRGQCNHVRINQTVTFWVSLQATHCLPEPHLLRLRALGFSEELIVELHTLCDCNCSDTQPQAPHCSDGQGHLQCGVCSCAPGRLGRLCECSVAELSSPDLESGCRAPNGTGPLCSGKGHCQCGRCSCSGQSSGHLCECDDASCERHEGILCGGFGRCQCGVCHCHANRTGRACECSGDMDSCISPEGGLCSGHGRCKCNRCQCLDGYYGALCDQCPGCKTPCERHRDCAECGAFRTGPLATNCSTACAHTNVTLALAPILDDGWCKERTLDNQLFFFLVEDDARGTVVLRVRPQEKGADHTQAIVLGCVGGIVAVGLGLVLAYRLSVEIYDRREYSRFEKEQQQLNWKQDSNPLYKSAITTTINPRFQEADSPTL
As to the kind of experiment: alpha-4 beta-7 Integrin Cell Capture Assay. As for the experimental part: The potency of inhibitors in preventing α4β7 integrin interaction with MadCAM-1 was measured by monitoring the capture of α4β7 integrin expressing cells on a recombinant MadCAM-1 extracellular domain-coated plate. 384-Well plates (Corning 3702) were coated with MadCAM-1 extracellular domain by dispensing 20 μL of MAdCAM-1 at 1.0 μg/mL per well and incubating overnight at 4° C. The plates were then washed with PBS and blocked with 3% BSA for 2 hours before being washed again.
With `Cc1cc(C(F)(F)F)c(-c2ccc(C[C@H](NC(=O)c3c(F)cc(N[C@H](C4CC4)C(F)(F)F)cc3F)C(=O)O)c3cccnc23)c(=O)n1C` [US11116760, Example 155], the EC50 came out at 0.3 nM. The same measure for `Cc1cc2c(=O)n(-c3ccc(C[C@H](NC(=O)c4c(F)cc(N5CCOC[C@@H]5C(F)(F)F)cc4F)C(=O)O)c4cccnc34)c(=O)n(C)c2cn1` [US11116760, Example 424]: 0.15 nM; for `CC[C@@H](Nc1cc(F)c(C(=O)N[C@@H](Cc2ccc(-c3ncc(C)c(C)n3)c3ncccc23)C(=O)O)c(F)c1)C(F)(F)F` [US11116760, Example 309]: 11.9 nM; for `C[C@H]1CN(c2cc(F)c(C(=O)N[C@@H](Cc3ccc(-c4ccc(C#N)cc4Cl)c4ncccc34)C(=O)O)c(F)c2)CCO1` [US11116760, Example 84]: 11.7 nM. The result for `N#Cc1ccc(-c2ccc(C[C@H](NC(=O)c3c(F)cc(N[C@H](C4CCOCC4)C(F)(F)F)cc3F)C(=O)O)c3cccnc23)c(Cl)c1` [US11116760, Example 338] reads 26.5 nM; that for `Cc1c(C)c(C)n(C)c(=O)c1-c1ccc(C[C@H](NC(=O)c2c(F)cc(N3CCOC[C@H]3C(F)(F)F)cc2F)C(=O)O)c2cccnc12` [US11116760, Example 251], 3.1 nM; that for `O=C(N[C@@H](Cc1ccc(-c2nccc(C#CC3CC3)c2C(F)(F)F)c2ncccc12)C(=O)O)c1c(Cl)cccc1Cl` [US11116760, Example 330], 21 nM. The same measure for `O=C(N[C@@H](Cc1ccc(-c2cc(F)c(F)cc2OCC2CC2)c2ncccc12)C(=O)O)c1c(F)cccc1F` [US11116760, Example 10]: 21.2 nM. Compound `CCOCc1cc(OC)c(-c2ccc(C[C@H](NC(=O)c3c(F)cc(NS(=O)(=O)c4ccc(-c5ccnc(F)c5)cc4)cc3F)C(=O)O)c3cccnc23)c(OC)c1` [US11116760, Example 50] displayed an EC50 of 0.4 nM. The same measure for `N#Cc1ccc(-c2ccc(C[C@H](NC(=O)c3c(F)cc(NC(C4CCOCC4)C(F)(F)F)cc3F)C(=O)O)c3cccnc23)c(Cl)c1` (stereo partly specified) [US11116760, Example 247]: 35.2 nM; for `N#Cc1ccc(-c2ccc(C[C@H](NC(=O)c3c(F)cc(N4CCO[C@@H](C(F)(F)F)C4)cc3F)C(=O)O)c3cccnc23)c(Cl)c1` [US11116760, Example 265]: 68.8 nM; for `Cc1cnc(-c2ccc(C[C@H](NC(=O)c3c(F)cc(N4CCOC[C@@H]4C(F)(F)F)cc3F)C(=O)O)c3cccnc23)nc1C` [US11116760, Example 97]: 3.2 nM. The same measure for `CC1(Nc2cc(F)c(C(=O)N[C@@H](Cc3ccc(-c4ccc(C#N)cc4Cl)c4ncccc34)C(=O)O)c(F)c2)COC1` [US11116760, Example 152]: 51.7 nM.

`Cc1cc(C)nc(-c2ccc(C[C@H](NC(=O)c3c(F)cc(N4CCOC[C@@H]4C(F)(F)F)cc3F)C(=O)O)c3cccnc23)n1` [US11116760, Example 261] yielded an EC50 of 4 nM. Turning to `Cc1ccc(C(F)(F)F)c(-c2ccc(C[C@H](NC(=O)c3c(Cl)cccc3Cl)C(=O)O)c3cccnc23)n1` [US11116760, Example 68], the EC50 was 14 nM.

`COc1ccnc(-c2ccc(C[C@H](NC(=O)c3c(F)cc(N4CCOC[C@@H]4C(F)(F)F)cc3F)C(=O)O)c3cccnc23)c1C(F)(F)F` [US11116760, Example 93] showed an EC50 of 0.4 nM. The result for `Nc1ccc(C(F)(F)F)c(-c2ccc(C[C@H](NC(=O)c3c(Cl)cccc3Cl)C(=O)O)c3cccnc23)n1` [US11116760, Example 72] reads 5.5 nM; that for `CC[C@@H](Nc1cc(F)c(C(=O)N[C@@H](Cc2cc(F)c(-c3c(OC)cc(C)n(C)c3=O)c3ncccc23)C(=O)O)c(F)c1)C(F)(F)F` [US11116760, Example 138], 0.8 nM.

Take `O=C(N[C@@H](Cc1ccc(-c2ccc(F)c3cccnc23)c2ncccc12)C(=O)O)c1c(F)cccc1F` [US11116760, Example 15]: the EC50 amounted to 9.3 nM. For `CC1(C)CN(c2cc(F)c(C(=O)N[C@@H](Cc3ccc(-c4ccc(C#N)cc4Cl)c4ncccc34)C(=O)O)c(F)c2)CCO1` [US11116760, Example 213], it took 28.6 nM to reach a half-maximal effect (EC50). In the case of `N#Cc1ccc(-c2ccc(C[C@H](NC(=O)c3c(F)cc(NC4COC4)cc3F)C(=O)O)c3cccnc23)c(Cl)c1` [US11116760, Example 214], the EC50 came to 28.6 nM. The same measure for `CC[C@@H](Nc1cc(F)c(C(=O)N[C@@H](Cc2ccc(-c3c(C(F)(F)F)c4cc(N(C)C)ccc4n(C)c3=O)c3ncccc23)C(=O)O)c(F)c1)C(F)(F)F` [US11116760, Example 125]: 1 nM. The same measure for `CC(C)[C@H]1COCCN1c1cc(F)c(C(=O)N[C@@H](Cc2ccc(-c3ccc(C#N)cc3Cl)c3ncccc23)C(=O)O)c(F)c1` [US11116760, Example 292]: 26.9 nM; for `Cc1nc(-c2ccc(C[C@H](NC(=O)c3c(F)cc(N4CCOC[C@@H]4C(F)(F)F)cc3Cl)C(=O)O)c3cccnc23)c(=O)n(C)c1C` [US11116760, Example 454]: 0.14 nM.

Consider `CC[C@@H](Nc1cc(F)c(C(=O)N[C@@H](Cc2ccc(-c3nccc(C)n3)c3ncccc23)C(=O)O)c(F)c1)C(F)(F)F` [US11116760, Example 294], for which the EC50 was found to be 7.4 nM. The same measure for `O=C(N[C@@H](Cc1ccc(-c2nccc(C(F)(F)F)c2Cl)c2ncccc12)C(=O)O)c1c(Cl)cccc1Cl` [US11116760, Example 314]: 13.4 nM; for `CCOCc1cc(OC)c(-c2ccc(C[C@H](NC(=O)c3c(F)cc(N)cc3F)C(=O)O)c3cccnc23)c(OC)c1` [US11116760, Example 44]: 10.9 nM; for `COc1c(-c2ccc(C[C@H](NC(=O)c3c(F)cccc3F)C(=O)O)c3cccnc23)c(=O)n(C)c2ccccc12` [US11116760, Example 67]: 1.6 nM. The same measure for `N#Cc1ccc(-c2ccc(C[C@H](NC(=O)c3c(F)cc(N[C@H]4CCC4(F)F)cc3F)C(=O)O)c3cccnc23)c(Cl)c1` [US11116760, Example 173]: 81.5 nM.

For the compound `N#Cc1ccc(-c2ccc(C[C@H](NC(=O)c3c(Cl)ccc(F)c3F)C(=O)O)c3cccnc23)c(Cl)c1` [US11116760, Example 17], the EC50 is 36.7 nM. The result for `N#Cc1ccc(-c2ccc(C[C@H](NC(=O)c3c(F)cc(NC4CCOCC4)cc3F)C(=O)O)c3cccnc23)c(Cl)c1` [US11116760, Example 262] reads 30.6 nM; that for `C[C@@H]1CN(c2cc(F)c(C(=O)N[C@@H](Cc3ccc(-c4ccc(C#N)cc4Cl)c4ncccc34)C(=O)O)c(F)c2)CCO1` [US11116760, Example 328], 19.4 nM; that for `CC(O)c1cc(F)c(C(=O)N[C@@H](Cc2ccc(-c3ccc(C#N)cc3Cl)c3ncccc23)C(=O)O)c(F)c1` (stereo partly specified) [US11116760, Example 33], 60.5 nM. The result for `N#Cc1ccc(-c2ccc(C[C@H](NC(=O)c3c(F)cc(NC(=O)c4ccccc4)cc3F)C(=O)O)c3cccnc23)c(Cl)c1` [US11116760, Example 169] reads 88.6 nM; that for `COc1ccn(C)c(=O)c1-c1ccc(C[C@H](NC(=O)c2c(F)cccc2F)C(=O)O)c2cccnc12` [US11116760, Example 13], 8.5 nM. The result for `COc1cc(F)c(C(=O)N[C@@H](Cc2ccc(-c3ccc(C#N)cc3Cl)c3ncccc23)C(=O)O)c(F)c1` [US11116760, Example 21] reads 96.6 nM.
